Measured values reported in US8129532B2, “Amino(oligo)thiophene dyes, preparation thereof, and optical methods of use” (The University of Connecticut, priority 2007, dated 2012).

Key:
[1] = tested on: layer V pyramidal neurons; assay: Toxicity / photodynamic damage: AP half-width during optical recording
Excerpt: S. Antic, G. Major, D. Zecevic, “Fast optical recordings of membrane potential changes from dendrites of pyramidal neurons”, Journal of Neurophysiology, 82, 1615-1621 (1999). Accumulation of reactive oxygen species (free radicals), which interact with and damage neuronal plasmalemma, is the most likely mechanism. J. B. Feix, B. Kalyanaraman, “Production of singlet oxygen-derived hydroxyl radical adducts during merocyanine-540-mediated photosensitization: analysis by ESR-spin trapping and HPLC with electrochemical detection”, Archives of Biochemistry & Biophysics, volume 291, pages 43-51 (1991). High intensity illumination during optical recording sessions excites large number of membrane bound dye molecules. Since styryl dyes have tendency to penetrate deep into the lipid bilayers (E. Fluhler, V. G. Burnham, L. M. Loew, “Spectra, membrane binding, and potentiometric responses of new charge shift probes”, Biochemistry, 24, 5749-5755 (1985)), free radicals are produced literally inside the neuronal membrane. […] S. D. Antic, “Action potentials in basal and oblique dendrites of rat neocortical pyramidal neurons”, Journal of Physiology 550, 35-50 (2003). […] Since dye loading was always done at room temperature (21° C.) and re-patching at 34° C., we could not compare AP shape and size before and after dye loading. Therefore, in order to check the extent of dye toxicity we designed a group of experiments in which neurons were injected and incubated at 34° C. During the dye injection (loading phase), in regular time intervals (3-5 min) direct current pulses was used to slowly charge the membrane and trigger an AP (FIG. 14A). Identical current pulse was then applied at the end of dye loading phase, just before the electrode pull-out (FIG. 14B) and after the 50-90 min incubation period (FIG. 14C, re-patch). […] To avoid AP jitter in optical recordings we used shorter and stronger current pulses (FIG. 14D, E, F, insets). However, from time to time we returned to AP-testing current injection protocol (FIG. 14D, E), while keeping the count on the number of cumulative high-intensity light exposures (# sweeps). […] Additional experimental details can be found in Ping Yan, Aifang Xie, Meide Wei, and Leslie M. Loew, “Amino(oligo)thiophene-Based Environmentally Sensitive Biomembrane Chromophores”, Journal of Organic Chemistry, published on web Jul. 30, 2008.

[2] = One-photon absorption and emission spectra in multilamellar lipid vesicles, water and ethanol; assay type: physicochemical
Excerpt: […] The column indicating relative signal change for one-photon fluorescence also lists the excitation light source used and the lower bounds of the long-pass emission detected.
Absorption and emission spectra were obtained for a series of dyes with different acceptors: pyridinium (PY-1261), quinolinium (PY-212), and acridinium (PY-2240).

[3] = tested on: layer V pyramidal neurons; assay: Voltage-sensitive dye imaging of action potentials in intracellularly stained pyramidal neurons in brain slices; assay type: cell-based, Sprague Dawley rats
Excerpt: Sprague Dawley rats (P21-42) were anesthetized with isoflurane, decapitated, and the brains were removed with the head immersed in ice-cold, artificial cerebrospinal fluid (ACSF), according to an animal protocol approved by the Center for Laboratory Animal Care, University of Connecticut. Brain slices (300 μm) were cut from frontal lobes in the coronal plane. ACSF contained (in mM) 125 NaCl, 26 NaHCO3, 10 glucose, 2.3 KCl, 1.26 KH2PO4, 2 CaCl2 and 1 MgSO4, pH 7.4. Whole-cell recordings were made from visually identified layer V pyramidal neurons on the medial part of the slice. Intracellular solution contained (in mM) 135 K-gluconate, 2 MgCl2, 3 Na2-ATP, 10 Na2-phosphocreatine, 0.3 Na2-GTP and 10 Hepes (pH 7.3, adjusted with KOH). Electrical signals were amplified with Multiclamp 700A and digitized with two input boards: (1) Digidata Series 1322A (Axon Instruments) at 5 kHz, and (2) Neuroplex (RedShirtImaging) at 2.7 kHz sampling rate. Only cells with a membrane potential more hyperpolarized than −50 mV, and action potential amplitudes exceeding 80 mV (measured from the base line) were included in this study. All experiments were performed on layer 5 cortical pyramidal cells at 34° C.
Blue dyes were stored in ethanol stock solution at −20° C. On the day of the recording blue dyes were dissolved in standard K-gluconate based intracellular solution. A loading pipette was filled with two varieties of the same intracellular solution; one with and one without dye. Dye-free solution was occupying the very tip of the pipette, while the back of the pipette lumen was microloaded with dye-rich solution. The purpose of dye-free solution in the tip of the patch pipette was to prevent dye-leak during the maneuver through brain slice tissue. VSD styryl dyes are lipophilic and bind indiscriminately and irreversibly to all membranes around the neuron of interest. Even a small amount of dye that leaks out of the pipette during the formation of the gigaohm seal, can generate strong fluorescent background. Fluorescent light emanating from surrounding tissue has a devastating effect on dendritic optical signals. Elimination of the background fluorescence is critical for dendritic voltage imaging. How much dye-free solution one should put in the tip depends on time period between the submersion of the patch pipette into the recording chamber and formation of the gigaohm seal. The faster one can perform this maneuver the less dye-free solution she needs to achieve optimal staining.
Blue VSD were injected at room temperature for 25-60 minutes. The filling pipette was carefully pulled out (outside-out patch) and brain slices were left to incubate for 20-120 minutes at room temperature. Just before optical recordings the cells were re-patched with dye-free pipette at the physiological temperature (34° C.).
Voltage-sensitive dye imaging was performed on a Zeiss Axioskope 2FS microscope equipped with NeuroCCD camera (RedShirtImaging). We used Zeiss 40× objective IR-Achroplan 0.80 W. The size of the square visual field captured by NeuroCCD camera was 384×384 um. In the place of the arc lamp (normally used for epi-illumination), we inserted a 200 μm fiber optic guide with a collimator. Laser beam was focused on the other side of the fiber optic guide using a microscope objective-like lens. This arrangement produced a motionless spot of laser light (˜25 μm in diameter) at the object plane. An illuminated section of the brain slice, projected onto the NeuroCCD camera, covered approximately 25 pixels when used with 40× objective lens. At this magnification, one pixel sampled a 4.8×4.8 square in the object plane. A region of interest (ROI) was brought into the laser spot using X-Y microscope platform. The laser beam was interrupted by an electro-programmable shutter (Uniblitz®). Attention was made to limit the exposure time during the recording and positioning of the neuron.

dye-stained cells = assay: Confocal fluorescence intensity and bleaching of dye-stained cells; assay type: cell-based; conditions: compared with PY-1261
[4] = One-photon fluorescence relative signal change per 100 mV; conditions: excitation / long-pass emission (nm) given
Excerpt: The left-most data columns of Table 1 are the absorption and emission maxima for one photon fluorescence in soybean multi-lamellar lipid vesicles used to mimic the membrane environment. The column indicating relative signal change for one-photon fluorescence also lists the excitation light source used and the lower bounds of the long-pass emission detected.

[5] = compared with unfluorinated PY-1261
[6] = one photon, soybean multi-lamellar lipid vesicles

Absorbance ethanol ([2]; ethanol) [nm] | Emission ethanol ([2]; ethanol) [nm] | Absorbance MLV ([2]; multilamellar lipid vesicles) [nm] | Emission MLV ([2]; multilamellar lipid vesicles) [nm] | Absorbance water ([2]; water) [nm] | half time for bleaching of dye-stained cells (dye-stained cells) | absorbance extinction coefficient of dye-stained lipid vesicle suspensions [2, 5] | effect of fluorination on spectra [2, 5] | 1PF Abs. Max [2, 6] [nm] | 1PF Em. Max [2, 6] [nm] | Compound | slope of linear fit, AP half-width versus cumulative sweeps ([1]; FIG. 15A, 15C) | sweeps recorded before AP half-width grew by more than 15% from control ([1]; n=12) [sweeps] | AP-associated optical signal, single example (base line-to-peak) ([3]; FIG. 11, basal dendrite) [% ΔF/F] | S/N ratio at 532 nm ([3]; laser spot 532 nm) | intensity of fluorescence of stained cells (dye-stained cells; confocal microscope) | 1PF Change (ΔF/F-100 mv) [4]
511 | 718 | 457 | 670 | 440 | – | – | – | – | – | Di-1-ANEPEQ [JPW-3028, reference compound] | 0.0027 | 86±28 | 5 | {at 532 nm = 5.95 ± 2.16} | – | –
– | – | – | – | – | increases the half time for bleaching | increases | shifts the spectra to the red | 565 | 706 | CCN(CC)c1ccc(-c2ccc(/C=C(\F)c3cc[n+](CCC[N+](CC)(CC)CC)cc3)s2)s1 [PY-3008] | – | – | – | – | increases | 1.0E−001; 650/>715 ΔF/F-100 mv
